Measured values as given in ChEMBL document CHEMBL1151362, “Catharanthus alkaloids. XXXIV. Catharanthamine, a new antitumor bisindole alkaloid from Catharanthus roseus” (1981).
The source made the active and inactive calls. No cut-off for these calls is given here.

Legend:
KB = assay: Cytotoxicity against human KB cells; format: functional, cell-based
P388 = assay: In vivo antitumor activity against mouse P388 cells at 1 mg/kg relative to control; format: functional

For `CC[C@]12C[C@H]3CN(CCc4c([nH]c5ccccc45)[C@@](C(=O)OC)(c4cc5c(cc4OC)N(C)[C@H]4[C@@](O)(C(=O)OC)[C@H](OC(C)=O)[C@]6(CC)C=CCN7CC[C@]54[C@@H]76)[C@@H]3O1)C2` [CATHARANTHAMINE], the Activity (KB) was “Active” and the T/C (P388) was 176%.
